Counter-ions that a name gives are not always drawn. Like-named read-outs stand apart in the source and are kept apart here.
What was measured:
[1] = molecular target: T1, peripheral opioid receptors (Mus musculus, UniProt P42866); experiment: precipitated diarrhea in morphine-maintained mice (peripheral opioid activity) and comparison with the writhing test; type: in vivo; settings: for Ratio (AD50 mouse writhing test / ED50 mouse diarrhea test): higher ratio = greater relative antagonism of peripheral opioid receptors; for ED50: mouse, 0.5 h, morphine-maintained mice, antagonist subcutaneous or oral, 30 min observation
T1 construct: Mice maintained (6 mice/cage) on 0.01M saccharin water with 1 g/1 morphine sulfate; from tissue; host or cells: living morphine-maintained mice (in vivo test; endogenous receptor)
T1 sequence (P42866 whole entry): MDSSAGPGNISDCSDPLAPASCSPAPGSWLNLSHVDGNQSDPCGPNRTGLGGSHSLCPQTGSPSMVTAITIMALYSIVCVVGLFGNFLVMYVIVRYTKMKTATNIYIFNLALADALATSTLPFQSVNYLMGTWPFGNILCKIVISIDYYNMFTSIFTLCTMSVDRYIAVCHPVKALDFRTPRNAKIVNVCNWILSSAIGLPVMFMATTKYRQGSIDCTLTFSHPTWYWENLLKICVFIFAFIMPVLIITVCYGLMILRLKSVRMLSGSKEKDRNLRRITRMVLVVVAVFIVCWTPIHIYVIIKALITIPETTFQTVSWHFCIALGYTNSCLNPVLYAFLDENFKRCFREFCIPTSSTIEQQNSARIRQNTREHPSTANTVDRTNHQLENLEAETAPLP
Summary of the method: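 Morphine-dependent mice (1 g/l morphine sulfate in drinking water ≥10 days, withdrawn 45 min before dosing) received antagonist subcutaneously or orally, 5 mice/dose. Diarrhea (and jumping) were scored over 30 min and doses lowered to find the diarrhea threshold. Peripheral selectivity was taken as writhing AD50 divided by diarrhea ED50.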

mu receptor = molecular target: T2, mu receptor (Rattus norvegicus, UniProt P33535); experiment: opioid receptor binding assay, [3H] NAL (tritiated naloxone), mu receptor; design: species or system rat (Male Sprague Dawley), brain minus cerebellum; settings: for inhibition at 0.01 µM / inhibition at 0.1 µM: 20 min, [3H] naloxone 0.5 nM
T2 construct: rat whole brain minus cerebellum for mu was homogenized; from tissue; host or cells: brain of male Sprague Dawley rats, whole brain minus cerebellum, homogenate fraction
T2 sequence (P33535 whole entry): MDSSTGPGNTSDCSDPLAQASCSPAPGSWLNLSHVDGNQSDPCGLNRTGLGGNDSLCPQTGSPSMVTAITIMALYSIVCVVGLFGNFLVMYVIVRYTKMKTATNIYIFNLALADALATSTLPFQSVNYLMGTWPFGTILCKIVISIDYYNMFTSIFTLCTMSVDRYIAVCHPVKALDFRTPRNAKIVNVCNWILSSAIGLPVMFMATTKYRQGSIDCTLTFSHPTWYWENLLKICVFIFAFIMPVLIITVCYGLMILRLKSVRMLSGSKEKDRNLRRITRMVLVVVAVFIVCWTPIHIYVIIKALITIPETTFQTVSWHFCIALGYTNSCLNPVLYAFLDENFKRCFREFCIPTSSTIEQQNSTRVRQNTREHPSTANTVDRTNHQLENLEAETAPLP
Summary of the method: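 Displacement of [3H]naloxone was measured on rat whole brain minus cerebellum membranes, preincubated 20 min and incubated 20 min at 37° C, with filtration separating bound ligand. Ki was derived from IC50 and ligand KD. Percent displacement was also recorded at 10 nM and 100 nM test compound.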

opioid receptor = molecular target: T3, opioid receptor (Mus musculus, UniProt P42866); experiment: mouse writhing analgesis test: block of morphine-induced analgesia; type: in vivo, CF-1 male mice; design: unit not given here; settings: dose of antagonist that reduced the inhibition of writhing produced by 1.25 mg/kg morphine sulfate to 50%; subcutaneous, 20 min before acetic acid
T3 construct: Five CF-1 male mice (Charles River, Portage, Mich.); from tissue; host or cells: living CF-1 male mice (in vivo test; endogenous receptor)
T3 sequence (P42866 whole entry): as the sequence (P42866 whole entry) above
Summary of the method: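 Male CF-1 mice (~20 g, fasted overnight, n=5) dosed subcutaneously 20 min before i.p. 0.6% acetic acid; writhes counted for 10 min starting 5 min post-injection. Antagonism measured as blockade of morphine-induced inhibition of writhing, percent versus vehicle controls; ED50 defined as 50% writhing inhibition.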

SMILES | Ratio (AD50 mouse writhing test / ED50 mouse diarrhea test) [1] | ED50 [1] [mg/kg] | Ki (mu receptor) [nM] | inhibition at 0.01 µM (mu receptor; read-out: % displacement at 10 nM, 10 nM test compound) [%] | inhibition at 0.1 µM (mu receptor; read-out: % displacement at 100 nM, 100 nM test compound) [%] | AD50 (opioid receptor) | inhibition at 0.01 µM (mu receptor; 10 nM test compound, read-out: % displacement at 10 nM) [%] | inhibition at 0.1 µM (mu receptor; 100 nM test compound, read-out: % displacement at 100 nM) [%]
CCNC(=O)CCCNC(=O)C(Cc1ccccc1)CN1CC[C@@](C)(c2cccc(O)c2)[C@@H](C)C1 (some centres unmarked) [Example 64, N-(ethyl)-4-[[3-4-(3-hydroxyphenyl)-3,4-dimethyl-1-piperidinyl]-2-(phenylmethyl)-1-oxopropyl]amino]butanamide monohydrochloride] | > 45 | 0.9 | 1.23 | 94 | 100 | > 40 | – | –
CCOC(=O)CN(C)C(=O)C(Cc1ccccc1)CN1CC[C@@](C)(c2cccc(O)c2)[C@@H](C)C1 (some centres unmarked) [Example 65, [[2-[[4-(3-hydroxyphenyl)-3,4-dimethyl-1-piperidinyl]methyl]-1-oxo-3-phenylpropyl]-methylamino]acetic acid ethyl ester monohydrochloride] | 3 | 0.92 | – | – | – | 2.8 | 57 | 95

From patent US5250542A, “Peripherally selective piperidine carboxylate opioid antagonists” (Eli Lilly and Company, priority 1992, dated 1993)
